In ChEMBL document CHEMBL4507291 (2021):

Tests used:
[1] = tested on: Tyrosine-protein kinase ABL1 (Homo sapiens), P00519 [F317I]
[2] = biological target: T1, Activin receptor type-1 (Homo sapiens) (UniProt Q04771)
T1 sequence (whole entry): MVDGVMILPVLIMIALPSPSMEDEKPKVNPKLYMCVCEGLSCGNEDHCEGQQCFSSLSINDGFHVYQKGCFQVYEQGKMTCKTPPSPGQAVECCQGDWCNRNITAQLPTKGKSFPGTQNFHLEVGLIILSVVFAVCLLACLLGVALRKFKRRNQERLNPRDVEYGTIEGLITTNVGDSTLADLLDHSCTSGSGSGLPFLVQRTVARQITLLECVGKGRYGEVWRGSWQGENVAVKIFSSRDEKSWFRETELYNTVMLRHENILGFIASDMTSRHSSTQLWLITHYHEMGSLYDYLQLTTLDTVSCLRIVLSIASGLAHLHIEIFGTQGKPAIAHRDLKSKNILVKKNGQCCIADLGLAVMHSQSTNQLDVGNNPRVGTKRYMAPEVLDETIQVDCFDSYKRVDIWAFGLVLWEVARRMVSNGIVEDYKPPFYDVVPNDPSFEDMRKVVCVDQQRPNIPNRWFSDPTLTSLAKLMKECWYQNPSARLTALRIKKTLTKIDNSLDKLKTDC

[3] = biological target: RAC-gamma serine/threonine-protein kinase (Homo sapiens) (UniProt Q9Y243)
[4] = biological target: Calcium/calmodulin-dependent protein kinase type 1B (Homo sapiens) (UniProt Q6P2M8)
[5] = biological target: Tyrosine-protein kinase Fes/Fps (Homo sapiens) (UniProt P07332)
[6] = biological target: Fibroblast growth factor receptor 4 (Homo sapiens) (UniProt P22455)
[7] = biological target: Insulin-like growth factor 1 receptor (Homo sapiens) (UniProt P08069)
[8] = tested on: Mast/stem cell growth factor receptor Kit (Homo sapiens), P10721 [A829P]
[9] = biological target: Serine/threonine-protein kinase MARK2 (Homo sapiens) (UniProt Q7KZI7)
[10] = biological target: T2, Tyrosine-protein kinase Mer (Homo sapiens) (UniProt Q12866)
T2 sequence (whole entry): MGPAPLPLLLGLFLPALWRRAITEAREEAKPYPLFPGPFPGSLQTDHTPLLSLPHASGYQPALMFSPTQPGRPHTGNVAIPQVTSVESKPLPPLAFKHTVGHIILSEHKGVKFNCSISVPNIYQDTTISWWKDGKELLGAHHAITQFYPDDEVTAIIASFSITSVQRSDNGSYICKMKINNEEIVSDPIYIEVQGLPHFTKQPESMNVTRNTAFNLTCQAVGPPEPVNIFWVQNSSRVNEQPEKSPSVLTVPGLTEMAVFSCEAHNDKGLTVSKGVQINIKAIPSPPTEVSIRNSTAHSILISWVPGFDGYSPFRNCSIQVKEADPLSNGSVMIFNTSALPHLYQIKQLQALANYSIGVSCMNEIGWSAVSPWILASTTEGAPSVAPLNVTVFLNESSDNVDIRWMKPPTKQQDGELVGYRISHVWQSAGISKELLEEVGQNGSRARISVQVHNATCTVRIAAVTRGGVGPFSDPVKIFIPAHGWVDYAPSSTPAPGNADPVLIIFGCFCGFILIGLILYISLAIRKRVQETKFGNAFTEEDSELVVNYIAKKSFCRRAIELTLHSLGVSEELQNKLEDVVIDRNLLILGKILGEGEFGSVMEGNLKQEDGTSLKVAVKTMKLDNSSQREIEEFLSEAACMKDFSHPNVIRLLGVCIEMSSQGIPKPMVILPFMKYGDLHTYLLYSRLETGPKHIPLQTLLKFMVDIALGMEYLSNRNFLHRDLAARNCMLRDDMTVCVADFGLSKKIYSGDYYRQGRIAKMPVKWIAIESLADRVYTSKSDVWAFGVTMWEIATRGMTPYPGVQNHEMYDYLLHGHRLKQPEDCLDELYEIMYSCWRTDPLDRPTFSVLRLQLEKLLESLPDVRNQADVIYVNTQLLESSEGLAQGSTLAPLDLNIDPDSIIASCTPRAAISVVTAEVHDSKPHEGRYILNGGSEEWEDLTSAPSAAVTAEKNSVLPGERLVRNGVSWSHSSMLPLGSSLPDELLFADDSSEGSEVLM

[11] = biological target: Misshapen-like kinase 1 (Homo sapiens) (UniProt Q8N4C8)
[12] = biological target: Myosin light chain kinase (Homo sapiens) (UniProt Q32MK0)
[13] = biological target: Serine/threonine-protein kinase 26 (Homo sapiens) (UniProt Q9P289)
[14] = biological target: Serine/threonine-protein kinase Nek11 (Homo sapiens) (UniProt Q8NG66)
[15] = biological target: Serine/threonine-protein kinase Nek7 (Homo sapiens) (UniProt Q8TDX7)
[16] = biological target: Protein kinase C theta type (Homo sapiens) (UniProt Q04759)
[17] = biological target: Serine/threonine-protein kinase RIO2 (Homo sapiens) (UniProt Q9BVS4)
[18] = biological target: SNF-related serine/threonine-protein kinase (Homo sapiens) (UniProt Q9NRH2)
[19] = biological target: Dual specificity testis-specific protein kinase 1 (Homo sapiens) (UniProt Q15569)
[20] = biological target: Tyrosine-protein kinase Yes (Homo sapiens) (UniProt P07947)
[21] = biological target: Kappa-type opioid receptor (Homo sapiens) (UniProt P41145); conditions: Compound concentration 10.0 uM
[22] = Compound concentration 1000.0 nM
[23] = Compound concentration 100.0 nM

Chain of Tyrosine-protein kinase Yes (Homo sapiens) (P07947 2-543 limits assumed): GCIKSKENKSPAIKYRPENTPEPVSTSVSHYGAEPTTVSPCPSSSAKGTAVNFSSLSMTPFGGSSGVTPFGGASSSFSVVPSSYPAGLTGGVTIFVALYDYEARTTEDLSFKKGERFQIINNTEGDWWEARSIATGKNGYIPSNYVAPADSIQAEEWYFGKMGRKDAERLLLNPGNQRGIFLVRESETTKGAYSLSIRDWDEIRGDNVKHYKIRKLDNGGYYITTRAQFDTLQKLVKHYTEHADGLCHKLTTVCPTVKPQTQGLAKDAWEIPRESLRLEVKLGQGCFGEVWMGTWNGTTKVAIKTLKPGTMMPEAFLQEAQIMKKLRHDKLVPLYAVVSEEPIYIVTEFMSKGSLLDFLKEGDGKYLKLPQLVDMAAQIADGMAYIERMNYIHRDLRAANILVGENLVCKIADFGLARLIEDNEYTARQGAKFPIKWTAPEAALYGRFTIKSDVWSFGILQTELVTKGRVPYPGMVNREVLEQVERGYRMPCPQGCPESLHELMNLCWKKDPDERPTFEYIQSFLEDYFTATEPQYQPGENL
Chain of Serine/threonine-protein kinase Nek7 (Homo sapiens) (Q8TDX7 whole entry, looked up): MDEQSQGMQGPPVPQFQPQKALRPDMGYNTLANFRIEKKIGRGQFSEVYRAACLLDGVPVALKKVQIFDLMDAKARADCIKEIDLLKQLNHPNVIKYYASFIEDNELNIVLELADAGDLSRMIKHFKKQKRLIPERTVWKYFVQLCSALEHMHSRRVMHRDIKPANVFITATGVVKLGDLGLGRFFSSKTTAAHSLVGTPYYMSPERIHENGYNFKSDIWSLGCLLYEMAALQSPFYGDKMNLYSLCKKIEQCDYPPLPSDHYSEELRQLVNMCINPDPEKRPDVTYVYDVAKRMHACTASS
Chain of Fibroblast growth factor receptor 4 (Homo sapiens) (P22455 22-802 limits assumed): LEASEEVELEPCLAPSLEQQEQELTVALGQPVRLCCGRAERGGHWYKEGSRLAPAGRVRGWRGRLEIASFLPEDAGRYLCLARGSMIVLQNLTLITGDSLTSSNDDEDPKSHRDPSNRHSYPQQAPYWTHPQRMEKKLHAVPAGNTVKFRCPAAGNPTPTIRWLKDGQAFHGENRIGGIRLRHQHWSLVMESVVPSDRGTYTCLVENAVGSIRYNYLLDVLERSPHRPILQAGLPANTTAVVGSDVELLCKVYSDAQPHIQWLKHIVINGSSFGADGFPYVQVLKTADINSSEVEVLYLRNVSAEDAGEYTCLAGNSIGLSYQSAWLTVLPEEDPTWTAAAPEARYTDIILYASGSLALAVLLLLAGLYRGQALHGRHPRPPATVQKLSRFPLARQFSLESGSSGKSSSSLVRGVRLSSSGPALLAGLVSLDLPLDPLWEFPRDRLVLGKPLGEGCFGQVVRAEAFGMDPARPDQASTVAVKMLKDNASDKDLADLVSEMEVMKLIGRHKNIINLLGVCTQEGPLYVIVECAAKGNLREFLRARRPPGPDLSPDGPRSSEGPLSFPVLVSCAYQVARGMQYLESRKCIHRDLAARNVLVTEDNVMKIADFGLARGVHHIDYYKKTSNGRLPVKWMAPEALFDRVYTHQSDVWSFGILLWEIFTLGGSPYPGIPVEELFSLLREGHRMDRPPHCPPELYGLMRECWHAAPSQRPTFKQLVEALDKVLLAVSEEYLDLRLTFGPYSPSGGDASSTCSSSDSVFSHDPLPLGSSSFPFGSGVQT
Chain of Myosin light chain kinase (Homo sapiens) (Q32MK0 whole entry): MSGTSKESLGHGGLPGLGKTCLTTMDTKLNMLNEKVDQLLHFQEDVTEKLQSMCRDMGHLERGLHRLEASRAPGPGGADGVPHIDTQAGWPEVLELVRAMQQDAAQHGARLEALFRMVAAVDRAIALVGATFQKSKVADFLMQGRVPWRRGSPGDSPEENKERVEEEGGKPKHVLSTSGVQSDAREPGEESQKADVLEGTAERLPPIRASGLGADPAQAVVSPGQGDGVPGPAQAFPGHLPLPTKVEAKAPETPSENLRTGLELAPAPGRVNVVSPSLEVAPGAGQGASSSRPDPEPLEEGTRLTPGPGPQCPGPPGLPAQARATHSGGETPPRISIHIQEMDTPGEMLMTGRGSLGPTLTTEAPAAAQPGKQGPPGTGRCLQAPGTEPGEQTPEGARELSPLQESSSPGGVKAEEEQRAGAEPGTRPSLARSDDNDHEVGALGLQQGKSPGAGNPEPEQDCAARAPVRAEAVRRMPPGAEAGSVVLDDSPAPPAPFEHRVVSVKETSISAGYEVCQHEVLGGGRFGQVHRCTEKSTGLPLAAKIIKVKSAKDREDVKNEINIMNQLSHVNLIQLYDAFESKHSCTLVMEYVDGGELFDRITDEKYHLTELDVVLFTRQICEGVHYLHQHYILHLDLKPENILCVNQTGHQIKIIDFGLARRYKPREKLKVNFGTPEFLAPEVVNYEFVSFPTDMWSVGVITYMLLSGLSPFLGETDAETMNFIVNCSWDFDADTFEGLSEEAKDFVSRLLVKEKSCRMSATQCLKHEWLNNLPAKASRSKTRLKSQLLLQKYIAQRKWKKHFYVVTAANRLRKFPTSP
Chain of Tyrosine-protein kinase ABL1 (Homo sapiens), P00519 [F317I] (P00519 whole entry F317I): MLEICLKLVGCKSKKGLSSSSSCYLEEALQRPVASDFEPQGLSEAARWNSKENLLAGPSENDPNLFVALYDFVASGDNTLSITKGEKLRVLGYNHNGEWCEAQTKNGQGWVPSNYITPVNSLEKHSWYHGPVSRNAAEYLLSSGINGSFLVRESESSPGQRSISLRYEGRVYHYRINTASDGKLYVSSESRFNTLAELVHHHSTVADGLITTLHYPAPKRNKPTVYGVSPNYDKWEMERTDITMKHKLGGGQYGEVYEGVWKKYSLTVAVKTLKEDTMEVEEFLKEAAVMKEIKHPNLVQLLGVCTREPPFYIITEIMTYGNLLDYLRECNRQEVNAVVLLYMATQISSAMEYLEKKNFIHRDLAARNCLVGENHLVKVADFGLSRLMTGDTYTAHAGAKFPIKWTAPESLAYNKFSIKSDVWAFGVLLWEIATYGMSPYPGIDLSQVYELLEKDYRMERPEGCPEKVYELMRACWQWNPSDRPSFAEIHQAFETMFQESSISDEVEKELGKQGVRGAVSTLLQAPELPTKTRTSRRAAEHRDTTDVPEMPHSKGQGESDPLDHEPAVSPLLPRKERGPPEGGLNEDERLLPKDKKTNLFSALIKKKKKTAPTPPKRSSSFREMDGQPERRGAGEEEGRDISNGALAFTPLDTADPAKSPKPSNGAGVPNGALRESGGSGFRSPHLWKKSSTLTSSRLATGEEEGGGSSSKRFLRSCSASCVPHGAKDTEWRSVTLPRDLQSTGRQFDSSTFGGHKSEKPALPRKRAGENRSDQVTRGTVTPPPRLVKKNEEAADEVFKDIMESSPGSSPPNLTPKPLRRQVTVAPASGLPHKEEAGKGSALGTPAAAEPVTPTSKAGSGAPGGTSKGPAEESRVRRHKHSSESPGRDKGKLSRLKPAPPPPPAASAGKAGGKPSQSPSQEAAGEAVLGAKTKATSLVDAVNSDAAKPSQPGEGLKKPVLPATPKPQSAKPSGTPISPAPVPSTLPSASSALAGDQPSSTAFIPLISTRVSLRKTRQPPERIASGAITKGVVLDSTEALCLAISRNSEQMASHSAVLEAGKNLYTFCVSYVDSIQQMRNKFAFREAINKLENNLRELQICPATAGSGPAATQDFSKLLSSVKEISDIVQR
Chain of RAC-gamma serine/threonine-protein kinase (Homo sapiens) (Q9Y243 whole entry): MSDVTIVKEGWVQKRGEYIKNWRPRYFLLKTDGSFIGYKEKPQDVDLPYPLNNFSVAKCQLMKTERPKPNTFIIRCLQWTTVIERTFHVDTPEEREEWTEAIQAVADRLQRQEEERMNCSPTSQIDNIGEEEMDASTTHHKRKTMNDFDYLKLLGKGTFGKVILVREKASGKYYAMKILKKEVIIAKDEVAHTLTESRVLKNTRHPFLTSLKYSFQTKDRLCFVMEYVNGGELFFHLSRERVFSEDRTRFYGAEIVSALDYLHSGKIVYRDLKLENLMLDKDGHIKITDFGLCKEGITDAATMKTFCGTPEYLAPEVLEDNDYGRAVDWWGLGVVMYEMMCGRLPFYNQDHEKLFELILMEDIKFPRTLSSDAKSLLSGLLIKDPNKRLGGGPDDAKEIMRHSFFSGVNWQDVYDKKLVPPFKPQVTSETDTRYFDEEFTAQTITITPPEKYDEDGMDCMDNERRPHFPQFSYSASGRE
Chain of Serine/threonine-protein kinase MARK2 (Homo sapiens) (Q7KZI7 whole entry): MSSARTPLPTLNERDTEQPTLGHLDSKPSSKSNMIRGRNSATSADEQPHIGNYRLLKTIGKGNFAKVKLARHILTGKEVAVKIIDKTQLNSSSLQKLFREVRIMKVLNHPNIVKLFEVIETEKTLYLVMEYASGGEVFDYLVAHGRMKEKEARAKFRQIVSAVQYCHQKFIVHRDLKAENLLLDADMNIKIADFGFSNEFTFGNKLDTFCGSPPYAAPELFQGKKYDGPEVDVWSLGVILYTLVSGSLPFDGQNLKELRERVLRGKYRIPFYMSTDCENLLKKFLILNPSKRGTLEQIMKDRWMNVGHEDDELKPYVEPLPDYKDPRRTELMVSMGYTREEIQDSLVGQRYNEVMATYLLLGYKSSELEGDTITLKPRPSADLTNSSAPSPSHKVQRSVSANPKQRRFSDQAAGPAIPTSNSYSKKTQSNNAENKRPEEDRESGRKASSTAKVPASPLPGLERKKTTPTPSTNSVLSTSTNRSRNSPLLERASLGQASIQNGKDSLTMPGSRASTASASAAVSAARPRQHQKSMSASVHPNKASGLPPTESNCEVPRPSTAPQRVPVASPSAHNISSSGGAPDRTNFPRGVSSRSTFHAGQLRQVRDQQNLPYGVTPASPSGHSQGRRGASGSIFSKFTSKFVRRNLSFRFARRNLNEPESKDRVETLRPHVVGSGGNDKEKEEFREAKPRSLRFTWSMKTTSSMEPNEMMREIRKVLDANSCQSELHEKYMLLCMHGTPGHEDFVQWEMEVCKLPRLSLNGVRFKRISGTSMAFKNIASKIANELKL

C[C@@H]1CN(c2cc(-c3nn(C)c4ccc(OC5(C)CC5)cc34)ncn2)C[C@H](C)O1 [MLi-2-NC]
inactive: residual activity [1, 22] 75% | residual activity [2, 22] 96% | residual activity [3, 22] 100% | residual activity [4, 22] 100% | residual activity [5, 22] 93% | residual activity [6, 22] 100% | residual activity [7, 22] 100% | residual activity [8, 22] 60% | residual activity [9, 22] 89% | residual activity [10, 22] 83% | residual activity [11, 22] 66% | residual activity [12, 22] 97% | residual activity [13, 22] 74% | residual activity [14, 22] 58% | residual activity [15, 22] 79% | residual activity [16, 22] 91% | residual activity [17, 22] 100% | residual activity [18, 22] 92% | residual activity [19, 22] 100% | residual activity [20, 22] 98% | inhibition [21] 13.1%

C[C@@H]1CN(c2cc(-c3n[nH]c4ccc(OC5(C)CC5)cc34)ncn2)C[C@H](C)O1 [MLi-2]
inactive: residual activity [1, 23] 80% | residual activity [2, 23] 90% | residual activity [3, 23] 86% | residual activity [4, 23] 67% | residual activity [5, 23] 87% | residual activity [6, 23] 100% | residual activity [7, 23] 100% | residual activity [8, 23] 62% | residual activity [9, 23] 100% | residual activity [10, 23] 97% | residual activity [11, 23] 84% | residual activity [12, 23] 87% | residual activity [13, 23] 76% | residual activity [14, 23] 100% | residual activity [15, 23] 100% | residual activity [16, 23] 74% | residual activity [17, 23] 68% | residual activity [18, 23] 94% | residual activity [19, 23] 75% | residual activity [20, 23] 80% | inhibition [21] -0.6%
